Measurements taken from EP0188793A1, “Improved topical minoxidil composition” (Richardson-Vicks, Inc., priority 1984, dated 1986).

Assay: in-vitro dripping (seepage) assay: distance traveled by a drop down an inclined glass plate
Type: physicochemical
Protocol: An in-vitro assay is utilized which measures the distance traveled by a 10 µ1 drop of the test formulation down a glass plate inclined at 45°C for 10 seconds. The test formulation is colored with dye to enhance the visual movement of the product. Pure ethanol (Ethanol, U.S.P) is used as the standard against which the test formulation is compared. […] The solvent system for each test formulation is 50:50 EtOH:HOH.
The ratio of the distance traveled ("dripping distance") by the particular test formulation to that of the ethanol standard provides the "dripping index" number for the test formulation.

## CCO [100% Ethanol, Ethanol]
10 µ1 drop, glass plate inclined at 45°C, 10 seconds, solvent 50:50 EtOH:HOH
  Dripping Distance: 60 mm
Ratio of dripping distance of the test formulation to that of the ethanol standard
  Dripping Index: 1.00
